The source made the active and inactive calls. The calls are words filed in the database; no cut-off is given here.
Tests used:
HepG2 [1] = assay: Effect on GADD45A gene expression in human HepG2 cells at IC50 after 48 hrs by microarray analysis relative to control; format: functional
PANC-1 [2] = assay: Effect on TDG gene expression in human PANC1 cells at IC50 after 48 hrs by microarray analysis; format: functional, cell-based
PANC-1 [3] = assay: Effect on CAMK2N1 gene expression in human PANC1 cells at IC50 after 48 hrs by microarray analysis; format: functional, cell-based
PANC-1 [4] = assay: Effect on CYP3A4 gene expression in human PANC1 cells at IC50 after 48 hrs by microarray analysis; format: ADME, cell-based; conditions: panc-1, 48 h
HepG2 [5] = assay: Antiproliferative activity against human HepG2 cells after 48 hrs by resazurin dye-based fluorescence assay; format: functional, cell-based; conditions: HepG2, 48 h
PANC-1 [6] = assay: Effect on NUCKS1 gene expression in human PANC1 cells at IC50 after 48 hrs by microarray analysis; format: functional, cell-based
PANC-1 [7] = assay: Effect on MATK gene expression in human PANC1 cells at IC50 after 48 hrs by microarray analysis; format: functional, cell-based
hTERT-BJ [8] = assay: Cytotoxicity against hTERT-BJ cells at 6.25 uM after 48 hrs by resazurin dye-based fluorescence assay relative to control; format: cell-based; conditions: human
PANC-1 [9] = assay: Effect on LOC407835 gene expression in human PANC1 cells at IC50 after 48 hrs by microarray analysis; format: functional, cell-based
HepG2 [10] = assay: Effect on GRP gene expression in human HepG2 cells at IC50 after 48 hrs by microarray analysis; format: functional, cell-based
[11] = Selectivity index, ratio of IC50 for hTERT-RPE1 cells to IC50 for human CCRF-CEM cells; format: toxicity; conditions: hTERT-RPE1 cells versus CCRF-CEM cells, read-out: Ratio IC50
PANC-1 [12] = assay: Effect on PAH gene expression in human PANC1 cells at IC50 after 48 hrs by microarray analysis; format: functional, cell-based
HepG2 [13] = assay: Effect on TOP2A gene expression in human HepG2 cells at IC50 after 48 hrs by microarray analysis relative to control; format: functional
PANC-1 [14] = assay: Effect on ABCB4 gene expression in human PANC1 cells at IC50 after 48 hrs by microarray analysis; format: functional, cell-based
Cytochrome P450 3A4 = Cytochrome P450 3A4 (Homo sapiens, UniProt P08684); assay: Inhibition of human recombinant CYP3A4 using luciferin as substrate preincubated for 10 mins followed by substrate addition and measured after 50 mins in presence of NADPH by CYP450-Glo assay; format: ADME; conditions: recombinant enzyme
Cytochrome P450 3A4, sequence (P08684 whole entry): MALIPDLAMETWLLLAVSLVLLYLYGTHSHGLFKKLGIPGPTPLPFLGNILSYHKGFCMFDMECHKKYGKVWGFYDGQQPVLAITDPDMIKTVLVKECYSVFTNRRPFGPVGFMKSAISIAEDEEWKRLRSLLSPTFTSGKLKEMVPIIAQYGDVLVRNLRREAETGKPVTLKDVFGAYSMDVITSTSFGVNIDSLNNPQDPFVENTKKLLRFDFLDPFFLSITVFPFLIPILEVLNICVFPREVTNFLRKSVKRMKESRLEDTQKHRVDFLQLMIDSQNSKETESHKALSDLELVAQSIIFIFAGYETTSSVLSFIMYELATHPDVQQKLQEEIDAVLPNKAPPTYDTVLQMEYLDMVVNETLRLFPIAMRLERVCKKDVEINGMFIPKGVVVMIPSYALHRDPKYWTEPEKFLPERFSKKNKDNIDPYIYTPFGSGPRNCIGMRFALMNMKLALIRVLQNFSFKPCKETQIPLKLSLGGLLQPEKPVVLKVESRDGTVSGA

HepG2 [15] = assay: Effect on SYT2 gene expression in human HepG2 cells at IC50 after 48 hrs by microarray analysis; format: functional, cell-based
HepG2 [16] = assay: Effect on ARK1B15 gene expression in human HepG2 cells at IC50 after 48 hrs by microarray analysis; format: functional, cell-based
HepG2 [17] = assay: Effect on LANCL 1 gene expression in human HepG2 cells at IC50 after 48 hrs by microarray analysis; format: functional, cell-based
HepG2 [18] = assay: Effect on OR5P2 gene expression in human HepG2 cells at IC50 after 48 hrs by microarray analysis; format: functional, cell-based
HepG2 [19] = assay: Effect on CASP7 gene expression in human HepG2 cells at IC50 by SYBR green-dye based qRT-PCR analysis relative to beta-actin; format: functional
TERT-RPE1 [20] = assay: Cytotoxicity against hTERT-RPE1 cells at 25 uM after 48 hrs by resazurin dye-based fluorescence assay relative to control; format: cell-based; conditions: human, tert-rpe1, 48 h
HepG2 [21] = assay: Effect on TOP3B gene expression in human HepG2 cells at IC50 after 48 hrs by microarray analysis; format: functional, cell-based
HepG2 [22] = assay: Effect on TOP2A gene expression in human HepG2 cells at IC50 by SYBR green-dye based qRT-PCR analysis relative to beta-actin; format: functional
PANC-1 [23] = assay: Antiproliferative activity against human PANC1 cells after 48 hrs by resazurin dye-based fluorescence assay; format: functional, cell-based; conditions: PANC-1, 48 h
HepG2 [24] = assay: Effect on OKL38 gene expression in human HepG2 cells at IC50 after 48 hrs by microarray analysis; format: functional, cell-based
HepG2 [25] = assay: Effect on CYP3A4 gene expression in human HepG2 cells at IC50 after 48 hrs by microarray analysis; format: ADME, cell-based; conditions: hepg2, 48 h
PANC-1 [26] = assay: Effect on CASP1 gene expression in human PANC1 cells at IC50 after 48 hrs by microarray analysis; format: functional, cell-based
PANC-1 [27] = assay: Effect on EIF5 gene expression in human PANC1 cells at IC50 after 48 hrs by microarray analysis; format: functional, cell-based
HepG2 [28] = assay: Effect on PYCR1 gene expression in human HepG2 cells at IC50 after 48 hrs by microarray analysis; format: functional, cell-based
HepG2 [29] = assay: Effect on MYO 10 gene expression in human HepG2 cells at IC50 after 48 hrs by microarray analysis; format: functional, cell-based
HepG2 [30] = assay: Effect on INHBE gene expression in human HepG2 cells at IC50 after 48 hrs by microarray analysis; format: functional, cell-based
CCRF-CEM = assay: Antiproliferative activity against human CCRF-CEM cells after 48 hrs by resazurin dye-based fluorescence assay; format: functional, cell-based
HepG2 [31] = assay: Effect on AKR1B10 gene expression in human HepG2 cells at IC50 after 48 hrs by microarray analysis; format: functional, cell-based
HepG2 [32] = assay: Effect on SRXN1 gene expression in human HepG2 cells at IC50 after 48 hrs by microarray analysis; format: functional, cell-based
hTERT-BJ [33] = assay: Cytotoxicity against hTERT-BJ cells at 12.50 uM after 48 hrs by resazurin dye-based fluorescence assay relative to control; format: cell-based; conditions: human, 12.5 µM
TERT-RPE1 [34] = assay: Cytotoxicity against hTERT-RPE1 cells at 6.25 uM after 48 hrs by resazurin dye-based fluorescence assay relative to control; format: cell-based; conditions: human, tert-rpe1, 48 h
HepG2 [35] = assay: Effect on CASP8 gene expression in human HepG2 cells at IC50 after 48 hrs by microarray analysis; format: functional, cell-based
HepG2 [36] = assay: Effect on GDF15 gene expression in human HepG2 cells at IC50 after 48 hrs by microarray analysis relative to control; format: functional
HepG2 [37] = assay: Effect on TUBB1 gene expression in human HepG2 cells at IC50 after 48 hrs by microarray analysis; format: functional, cell-based
PANC-1 [38] = assay: Effect on GLULP2 gene expression in human PANC1 cells at IC50 after 48 hrs by microarray analysis; format: functional, cell-based
PANC-1 [39] = assay: Effect on CYP1A1 gene expression in human PANC1 cells at IC50 after 48 hrs by microarray analysis; format: ADME, cell-based; conditions: panc-1, 48 h
HepG2 [40] = assay: Effect on GDF15 gene expression in human HepG2 cells at IC50 after 48 hrs by microarray analysis; format: functional, cell-based
PANC-1 [41] = assay: Effect on CTBP2 gene expression in human PANC1 cells at IC50 after 48 hrs by microarray analysis; format: functional, cell-based
hTERT-BJ [42] = assay: Cytotoxicity against hTERT-BJ cells at 50 uM after 48 hrs by resazurin dye-based fluorescence assay relative to control; format: cell-based; conditions: human
PANC-1 [43] = assay: Effect on THOC2 gene expression in human PANC1 cells at IC50 after 48 hrs by microarray analysis; format: functional, cell-based
PANC-1 [44] = assay: Effect on UPP1 gene expression in human PANC1 cells at IC50 after 48 hrs by microarray analysis; format: functional, cell-based
HepG2 [45] = assay: Effect on TOP2B gene expression in human HepG2 cells at IC50 after 48 hrs by microarray analysis; format: functional, cell-based

Activity (PANC-1 [4]): Active
IC50 (HepG2 [5]): 9.42 µM
inhibition (INH) (Cytochrome P450 3A4): Dose-dependent effect
IC50 (PANC-1 [23]): 5.45 µM
Activity (HepG2 [25]): Active
IC50 (CCRF-CEM): 7.45 µM
Activity (PANC-1 [39]): Active
Structure (SMILES): O=C(N/N=C/c1cc2ccccc2nc1Cl)c1cc2cc(Br)ccc2oc1=O
fold change (FC) (HepG2 [1]): 1.96
Activity (PANC-1 [2]): Active
Activity (PANC-1 [3]): Active
Activity (PANC-1 [6]): Active
Activity (PANC-1 [7]): Active
Activity (hTERT-BJ [8]): 1.98%
Activity (PANC-1 [9]): Active
Activity (HepG2 [10]): Active
selectivity ratio [11]: > 6.71
Activity (PANC-1 [12]): Active
fold change (FC) (HepG2 [13]): -3.57
Activity (PANC-1 [14]): Active
Activity (HepG2 [15]): Active
Activity (HepG2 [16]): Active
Activity (HepG2 [17]): Active
Activity (HepG2 [18]): Active
fold change (FC) (HepG2 [19]): 2.45
Activity (TERT-RPE1 [20]): 19.41%
Activity (HepG2 [21]): Active
fold change (FC) (HepG2 [22]): -1.54
Activity (HepG2 [24]): Active
Activity (PANC-1 [26]): Active
Activity (PANC-1 [27]): Active
Activity (HepG2 [28]): Active
Activity (HepG2 [29]): Active
Activity (HepG2 [30]): Active
Activity (HepG2 [31]): Active
Activity (HepG2 [32]): Active
Activity (hTERT-BJ [33]): 3.63%
Activity (TERT-RPE1 [34]): 0.94%
Activity (HepG2 [35]): Active
fold change (FC) (HepG2 [36]): 4.56
Activity (HepG2 [37]): Active
Activity (PANC-1 [38]): Active
Activity (HepG2 [40]): Active
Activity (PANC-1 [41]): Active
Activity (hTERT-BJ [42]): 5.18%
Activity (PANC-1 [43]): Active
Activity (PANC-1 [44]): Active
Activity (HepG2 [45]): Active
